Laboratory results taken from PMC6958523, “Metabolism and Pharmacokinetic Study of the Boron-Containing Prodrug of Belinostat (ZL277), a Pan HDAC Inhibitor with Enhanced Bioavailability” (Pharmaceuticals, 2019).

Tests used:
[1] = In vitro sulfation of ZL277 in liver cytosol with PAPS; type: in vitro ADME; settings: rat liver cytosol, 30 min
Method: The incubation of ZL277 with liver cytosols followed a similar procedure to the study of sulfation of ZB716 [23]. After termination of incubation with 300 µL MeOH, the final mixture was centrifuged. The supernatant was analyzed on the UHPLC-Q-Exactive instrument.
(§1) The samples from in vitro incubations were run on a Hypersil GOLD C18 column (1.8 µm, 2.1 × 50 mm) with UHPLC ultimate 3000 from Dionex coupled with one Q-Exactive HR mass spectrometer (Thermo Scientific, Waltham, MA, USA). The gradient started at 20% mobile phase B (Acetonitrile with 0.05% formic acid) and 80% mobile phase A (water with 0.05% formic acid), increased to 100% B in 4.5 min at 0.3 mL/min, stayed for 5 min, then came back to 30% B until equilibration. PRM mode or full scan mode was used to identify the interested metabolites.

[2] = Metabolites of ZL277 in urine and fecal samples from treated mice; type: in vivo; settings: for relative abundance among metabolites in feces / relative abundance among metabolites in urine: mice treated with ZL277; for metabolite detected in Urine: mice after IP injection of ZL277
Method: (§2) Four to six-week-old female ovariectomized Nu/Nu mice (Genotype: Homozygous genotype, homozygous for Foxn1), purchased from Charles River Laboratories (Wilmington, MA, USA), were used for the study of ZL277 metabolites in vivo. Six mice in each group were given ethanol-dissolved ZL277 and belinostat, at a single dose of 10 mg/kg by intraperitoneal injection (IP). After IP administration, venous blood samples were collected at 1, 3, 6, and 24 h time points. Urine and fecal samples were collected for the time duration of 0–8 h, 8–24 h, 24–32 h, and 32–48 h after IP administration.
(§3) Plasma, urine, or feces samples were processed following protocols published previously. These samples were injected on the Hypersil GOLD C18 column (1.8 µm, 2.1 × 50 mm) with UHPLC ultimate 3000 from Dionex, coupled with a […] mass spectrometer, to quantitate the concentration of the main metabolites of ZL277. The 10 µL samples were run with the gradient starting at 0.3 mL/min from 2% mobile phase B (acetonitrile with 0.05% formic acid) and 98% mobile phase A (water with 0.05% formic acid) until 1 min, up to 30% B at 3 min, 45% B at 4.8 min, 100% B at 5.5 min, then back to 30% B until equilibration. SRM mode was used to detect ZL277 (pos 535.21→134.97), ZL277-B(OH)2-452 (neg 451.13→256.04), ZL277-424-OH (neg 423.07→317.04), belinostat (neg 317.02→245.05) or (pos 319.08→93.08), belinostat amide (pos 303.08→91.05), belinostat acid (neg 302.05→92.05), methylated belinostat (pos 333.09→239.92). The product scan in MS/MS mode was used to detect belinostat–sulfate (neg 397.02→97.02), and belinostat–glucoronate (pos 495.09→319.27). The […] was set at spray voltage at 3200 V, vaporizer temperature at 365 °C, sheath gas pressure at 33 psi, auxiliary gas pressure at 10 psi, and capillary temperature at 350 °C. Additional experimental details can be found in Figures S1 and S2, and Tables S1–S8.
Sample preparation protocols: […]
(2) Feces sample preparation: The collected feces samples were weighed on an OHAUS Explorer balance. The internal standard of trans-tamoxifen-13C2,15N (0.5 ng/μL in methanol) was added to the feces samples based on 10 ng/g feces according to the weight of the feces collected. Methanol was added at the ratio of 4 mL/g feces. Then the samples were homogenized with a Power Gen 125 homogenizer (Fisher Scientific) and stored at - 20 °C overnight. After sonicating for 30 min, the samples were centrifuged with a Heraeus Megafuge16R centrifuge at 3000 RPM. The supernatant was dried at room temperature and resuspended with corresponding amount of methanol (200 μL methanol/g feces) for injection on the TSQ Vantage instrument.
(3) Urine sample preparation: Urine samples were thawed at room temperature and vortexed. 200 μL of the sample was transferred to a 1.5 mL Eppendorf microcentrifuge tube followed by adding 200 μL methanol and 10 μL of the 0.5 ng/μL trans-tamoxifen-13C2, 15N in methanol solution. After Vortaxing and centrifuging, the top supernatant was injected on the UPLC-TSQ Vantage mass spectrometer instrument for analysis.

[3] = In vitro metabolism of ZL277 in liver S9 fraction with NADPH; type: in vitro ADME; settings: rat liver S9, NADPH, 1 h
Method: The incubation of ZL277 with liver S9 fractions followed the procedures of incubation with liver microsomes, as described previously. The pre-incubation solution consisted of 30 µL of potassium phosphate buffer (pH 7.4; 10X), 241.5 µL water, 15 µL of NADPH solution A, 3 µL of NADPH solution B, 7.5 µL rat liver S9 fractions. After incubation at 37 °C for 5 min in a 1.5 mL microcentrifuge vial, 3 µL of 10 mM ZL277 was added, mixed, and incubated at 37 °C for another 60 min in the incubator. Then, 300 µL MeOH was added to terminate the reaction. After centrifugation, the supernatant was analyzed on the UHPLC, coupled to a Q-Exactive high-resolution mass spectrometer.
as §1

[4] = Pharmacokinetics and in vivo metabolites of ZL277 in mice plasma after single IP dose; settings: for metabolite detected in Plasma: mice after IP injection of ZL277
Method: as §2, §3
Sample preparation protocols:
(1) Plasma sample preparation: Plasma samples (100 μL) were extracted with methanol.
Internal standard (10 μL 0.5 ng/μL trans-tamoxifen-13C2, 15N in methanol), methanol
(0.5 mL) were added to each plasma sample. The mixtures were stored at −20 °C
overnight. Samples were sonicated for 10 min and then centrifuged on a Heraeus Fresco

[5] = Drug and metabolite concentrations in MCF-7 xenograft breast tumor tissues of treated mice; type: in vivo; settings: breast tumor xenograft in mice treated with ZL277
Method: Four to six week old female ovariectomized Nu/Nu mice, implanted subcutaneously with 17β-Estradiol pellets, were injected with MCF-7 cells harvested in the exponential growth phase to grow the breast tumors. On day 15 after tumor formation, the mice were treated with vehicle, belinostat, at 10 mg/kg/day, or ZL277 at 10 mg/kg/day, by subcutaneous injection. On the last day of the study, the tumors were collected and frozen for analysis.
as §3

[6] = test system: MCF-7 tumor xenograft; parameters: method as in PMID 29456804; settings: mice; cited from earlier work
[7] = test system: MDA-MB-231; parameters: method as in PMID 29456804; settings: cited from earlier work
[8] = test system: MCF-7; parameters: method as in PMID 29456804; settings: cited from earlier work

Row | relative abundance among metabolites in feces [2] | relative abundance among metabolites in urine [2] | metabolite detected in Plasma [4] | metabolite detected in Tumor [5] | metabolite detected in Urine [2] | SMILES | further results
1 |  |  |  |  |  | O=C(/C=C/c1cccc(S(=O)(=O)Nc2ccccc2)c1)NOCc1ccc(OS(=O)(=O)O)cc1 [ZL277-OH-424-sufate] | sulfate conjugate found after incubation of ZL277 [1]: detected
2 | major metabolites | major components |  |  |  | O=C(/C=C/c1cccc(S(=O)(=O)Nc2ccccc2)c1)NOCc1ccc(O)cc1 [ZL277-OH-424] | metabolite found after incubation of ZL277 with liver S9 fraction [3]: major oxidative metabolite
3 |  |  | detected | found | detected | CONC(=O)/C=C/c1cccc(S(=O)(=O)Nc2ccccc2)c1 [Methylated belinostat, methylated belinostat] | 
4 | major metabolites | major components | detected | found | detected | O=C(/C=C/c1cccc(S(=O)(=O)Nc2ccccc2)c1)NO [Belinostat, belinostat] | effect on growth of MCF-7 tumor xenograft [6]: only inhibited tumor growth
5 | major metabolites | major components |  |  |  | O=C(/C=C/c1cccc(S(=O)(=O)Nc2ccccc2)c1)NOCc1ccc(B(O)O)cc1 [ZL277-B(OH)2-452] | relative abundance among drug-related forms in plasma ([4]; mice treated with ZL277): predominant form
6 |  |  |  |  |  | CC1(C)OB(c2ccc(CONC(=O)/C=C/c3cccc(S(=O)(=O)Nc4ccccc4)c3)cc2)OC1(C)C [ZL277] | bioavailability compared to belinostat ([4]; mice, 10 mg/kg IP): superior; metabolite found after incubation of ZL277 with liver S9 fraction [3]: not found; antiproliferative activity compared with belinostat [7]: slightly weaker; antiproliferative activity compared with belinostat [8]: slightly weaker; effect on growth of MCF-7 tumor xenograft [6]: caused tumor regression
7 |  |  | detected | found | detected | NC(=O)/C=C/c1cccc(S(=O)(=O)Nc2ccccc2)c1 [Belinostat amide, belinostat amide] | 
8 |  |  |  |  |  | O=C(/C=C/c1cccc(S(=O)(=O)Nc2ccccc2)c1)NOS(=O)(=O)O [Belinostat–sulfate] | sulfate conjugate found after incubation of ZL277 [1]: No peak
9 | dominantly | dominant components | detected | found | detected | O=C(O)/C=C/c1cccc(S(=O)(=O)Nc2ccccc2)c1 [Belinostat acid, belinostat acid] | 
